Reference: patent publication US20250236901A1, “METHOD OF DETECTING A MICROORGANISM HAVING HIPPURICASE ACTIVITY” (BIOSYNTH AG, priority 2022, published 2025)

How the values were obtained:
Type in all cases: cell-based
[1] = tested on: catalase-positive samples (Campylobacter); assay: Catalase control experiment: chromogenic reaction of p-hydroxybenzoic acid with 4-AAP/HRP/H2O2 in presence of cells; details: 1 mM 4-HBA, 0.5 mM 4-AAP, 4.5 U/mL HRP, 1 mM H2O2; OD600 0.4 to 0.5; FIG. 2B, FIG. 9
Procedure: In a catalase control experiment, biomass of colonies was suspended in sterile phosphate buffer (100 mM, pH 7.4) and the optical density OD was determined and then serially diluted with the same buffer to an OD600 of 0.4 to 0.5.
One hundred to 150 μL of cell suspension were mixed with 50 to 100 μL of 100 mM phosphate puffer pH 7.4 and 50 μL of the prepared mixture (5×) 4-aminoantipyrine (4-AAP, Merck 06800, 2.5 mM), peroxidase (HRP, Merck 77332, 22.5 U/mL) and 4-hydroxybenzoic acid (4-HBA, Merck H20059, 5 mM, dissolved in 100 mM phosphate puffer pH 7.4) and 5 μL of 50 mM H2O2 were added. The absorbance at 505 nm was recorded with a plate reader (SpektraMax M5, Molecular Devices) at room temperature. Final concentrations for the assay are 1 mM 4-HBA, 0.5 mM 4-AAP, 4.5 U/mL HRP and 1 mM H2O2. (FIG. 2B)
Two hundred μL of cell suspension were mixed with 20 μL of 100 mM phosphate puffer pH 7.4, 5 μL 50 mM and p-4-hydroxybenzoic acid (p-HBA, Merck H20059 dissolved in 100 mM phosphate puffer pH 7.4), 20 μL of mixture 4-aminoantipyridine (Merck 06800, 6.25 mM) and horseradish peroxidase (Merck 77332, 56.3 U/mL), followed by the addition of 5 μL of 50 mM H2O2. The absorbance at 505 nm was recorded with a plate reader (SpektraMax M5, Molecular Devices) at room temperature. Final concentrations for the assay are 1 mM p-4-HBA, 0.5 mM 4-AAP, 4.5 U/mL HRP and 1 mM H2O2. (FIG. 9)

Eschericha coli = assay: Detection of hippuricase activity with 4-HHA, 4-aminoantipyrine, HRP and H2O2; details: Example 1; OD600 0.9; 5, 10, 20 mM 4-HHA, 70 min 37° C.; 0.5 mM 4-AAP, 4.5 U/mL HRP, 2 mM H2O2
Procedure: (§1) Campylobacter jejuni DSM 4688 (C. j., catalase positive), Eschericha coli (E. coli, catalase positive) and Campylobacter coli DSM 4689 (C. c., catalase positive), Streptococcus agalactiae ATCC®12386 (S. a., catalase negative) and Streptococcus pyogenes ATCC®19615 (S. p., catalase negative) were cultivated on Columbia Agar with sheep blood (Thermofischer PB5039A) at 37° C. for 48 h, both Campylobacter strains were cultivated under microaerophilic atmosphere (Oxoid, Campylgen CN0025A).
(§2) Biomass of colonies were suspended in sterile phosphate buffer (100 mM, pH 7.4) and the optical density OD was determined and set to OD600 of 0.9.
(§3) Two hundred μL of cell suspensions were mixed with 25 μL of 4-hydroxyhippuric acid (4-HHA, Bachem, 4005059) stock solution, prepared in 100 mM phosphate buffer pH adjusted to 7.4 in a microtiter plate (SpektraMax M5, Molecular Devices) and incubated for 70 minutes at 37° C. After incubation, 20 μL of a prepared mixture (12.5×) 4-aminoantipyrine (4-AAP, Merck 06800) and peroxidase (HRP, Merck 77332) and 5 μL of 100 mM H2O2 were added. The absorbance at 505 nm was recorded with a plate reader at room temperature. Final concentrations for the assay were 5 mM, 10 mM and 20 mM 4-HHA, 0.5 mM 4-AAP, 4.5 U/mL HRP and 2 mM H2O2.

[2] = tested on: Streptococcus agalactiae ATCC®12386; assay: Detection of hippuricase activity with 4-HHA, 4-aminoantipyrine and oxidizing reagent; details: Example 6; OD600 0.5-0.6; 10 mM 4-HHA; HRP/H2O2, HRP/Glu/GOD or NaIO4
Procedure: (§4) Streptococcus agalactiae ATCC®12386 and Streptococcus pyogenes ATCC®19615 were cultivated on Columbia Agar with sheep blood (Thermofischer PB5039A) at 37° C. for 48 h.
(§5) Biomass of colonies were suspended in sterile 100 mM phosphate buffer pH 7.4 and the optical density OD600 was set to 0.5-0.6.
(§6) Two hundred μL of cell suspensions were mixed with 25 μL of 100 mM 4-hydroxyhippuric acid (4-HHA, Bachem 4005059) prepared in 100 mM phosphate buffer pH adjusted to 7.4) in a microtiter plate and incubated for 80 min. at 37° C. After incubation, 20 μL of the prepared mixture (12.5×) 4-aminoantipyrine (4-AAP, Merck 06800) and horseradish peroxidase (HRP, Merck 77332), 5 μL of 100 mM H2O2 were added. The absorbance at 505 nm was recorded with a plate reader (SpektraMax M5, Molecular Devices) at room temperature and endpoint of absorbance at 505 nm was evaluated (FIG. 8A). Final concentrations for the assay were 10 mM 4-HHA, 0.5 mM 4-AAP, 4.5 U/mL HRP and 2 mM H2O2.
(§7) Two hundred μL of cell suspension were mixed with 25 μL of 100 mM 4-hydroxyhippuric acid (4-HHA, Bachem 4005059, dissolved in 100 mM phosphate puffer pH 7.4) in microtiter plate and incubated for 1 h at 37° C. […] The absorbance at 505 nm was recorded with a plate reader and endpoint of absorbance at 505 nm was evaluated (FIG. 8B). […]

[3] = tested on: Streptococcus pyogenes ATCC®19615; assay: as above; details: Example 6; OD600 0.5-0.6; 10 mM 4-HHA; HRP/H2O2, HRP/Glu/GOD or NaIO4
Procedure: as §4, §5, §6, §7

[4] = tested on: Campylobacter coli DSM 4689; assay: Detection of hippuricase activity with 4-HHA, 4-aminoantipyrine and oxidizing reagent (color / absorbance at 505 nm)
Procedure: as §1, §2, §3
(§8) Biomass of colonies were suspended in sterile 100 mM phosphate buffer pH 7.4 and the optical density OD600 was set to 0.9 and then serially diluted with the same buffer to an OD600 of 0.5, 0.2 and 0.1.
as §6, with “1 h” for “80 min.”, “and” for “and horseradish”, “temperature.” for “temperature and endpoint of absorbance at 505 nm was evaluated (FIG. 8A).”
(§9) Biomass of colonies were suspended in sterile phosphate buffer (100 mM, pH 7.4) and the optical density OD was set to 0.9 and then serially diluted with the same buffer to an OD600 of 0.5, 0.2 and 0.1.
(§10) Two hundred μL of cell suspension were mixed with 25 μL of 100 mM 4-hydroxyhippuric acid (4-HHA, Bachem 4005059, dissolved in 100 mM phosphate puffer pH 7.4) in microtiter plate and incubated for 1 h at 37° C. After incubation, 10 μL of the prepared mixture (25×) 4-aminoantipyrine (4-AAP, Merck 06800) and peroxidase (HRP, Merck 77332), 10 μL of 250 mM glucose (Merck, G8270) and 5 μL of glucose oxidase (GOD, Merck G2133) 50 U/mL were added. The absorbance at 505 nm was recorded with a plate reader. Final concentration of 4-HHA was 10 mM, 4-AAP was 0.5 mM, HRP was 4.5 U/mL, glucose was 10 mM and GOD was 1 U/mL.
Biomass of colonies were suspended, a) 0.2 mL sterile 100 mM phosphate buffer pH 7.4; b) 0.1 mL sterile water (as recommended in manual), c) 0.5 mL saline solution (as recommended in manual). To ensure a proper comparability, the optical density OD600 of all cell suspensions were set to 0.2. In method a) 25 μL of 100 mM 4-hydroxyhippuric acid (4-HHA, Bachem 4005059 prepared in 100 mM phosphate buffer pH adjusted to 7.4) was added to cell suspensions. In methods b) and c), Hippurate disks and Hippurate strips were dropped in cell suspensions as recommended in manual. […]

[5] = tested on: Campylobacter jejuni DSM 4688; assay: as above; details: for time to plateau of absorbance at 505 nm: HRP/H2O2
Procedure: as §1, §2, §3, §8
as §6, with “1 h” for “80 min.”, “and” for “and horseradish”, “temperature.” for “temperature and endpoint of absorbance at 505 nm was evaluated (FIG. 8A).”
as §9, §10
Biomass of colonies were suspended, a) 0.2 mL sterile 100 mM phosphate buffer pH 7.4; b) 0.1 mL sterile water (as recommended in manual), c) 0.5 mL saline solution (as recommended in manual). To ensure a proper comparability, the optical density OD600 of all cell suspensions were set to 0.2. In method a) 25 μL of 100 mM 4-hydroxyhippuric acid (4-HHA, Bachem 4005059 prepared in 100 mM phosphate buffer pH adjusted to 7.4) was added to cell suspensions. In methods b) and c), Hippurate disks and Hippurate strips were dropped in cell suspensions as recommended in manual. To ensure a proper comparability, all samples were incubated at 37° C. for 1 h.
After incubation, 10 μL of the prepared mixture (25×) 4-aminoantipyrine (4-AAP, Merck 06800) and peroxidase (HRP, Merck 77332), followed with 5 μL of 100 mM H2O2 were added in samples of method a). Final concentrations for the assay were 10 mM 4-HHA, 0.5 mM 4-AAP, 4.5 U/mL HRP and 2 mM H2O2.

[6] = Example 1, OD600 0.9, 5, 10, 20 mM 4-HHA, 70 min 37° C., 0.5 mM 4-AAP, 4.5 U/mL HRP, 2 mM H2O2

Row | color of sample [2] | color of sample [3] | time to plateau of absorbance at 505 nm ([5]; Example 1, FIG. 2A, OD600 0.9) | color of sample [5, 6] | time to plateau of absorbance at 505 nm ([5]; Example 2, FIG. 3, OD600 value of 0.1) | color of sample ([5]; Example 2, OD600 0.1 to 0.9, 10 mM 4-HHA 1 h 37° C., HRP/2 mM H2O2) | color of sample ([5]; Example 3, OD600 0.1 to 0.9, 10 mM 4-HHA 1 h 37° C., HRP, 10 mM glucose, 1 U/mL GOD) | color of sample ([5]; Example 4 method a), OD600 0.2, 10 mM 4-HHA 1 h 37° C., HRP/2 mM H2O2, few minutes at room temperature) | color of sample ([5]; Example 5, OD600 0.1 to 1.1, 10 mM 4-HHA 1 h 37° C., 2 mM 4-AAP, 2 mM NaIO4) | SMILES | time after which the chromogenic reaction stopped (absorbance at 505 nm) [1] | color of sample (Eschericha coli) | color of sample [4, 6] | color of sample ([4]; Example 2, all OD600 values 0.1 to 0.9, 10 mM 4-HHA 1 h 37° C., HRP/2 mM H2O2) | color of sample ([4]; Example 3, all OD600 values, 10 mM 4-HHA 1 h 37° C., HRP, 10 mM glucose, 1 U/mL GOD) | color of sample ([4]; Example 4 method a), OD600 0.2, 10 mM 4-HHA 1 h 37° C., HRP/2 mM H2O2) | color of sample ([4]; Example 5, all OD600 values, 10 mM 4-HHA 1 h 37° C., 2 mM 4-AAP, 2 mM NaIO4)
1 | – | – | – | – | – | – | – | – | – | O=C(O)c1ccc(O)cc1 [p-hydroxybenzoic acid] | about 5 minutes | – | – | – | – | – | –
2 | pink color | colorless or slightly yellowish | about 5 minutes | robust red to pink color | about 10 minutes | robust red to pink color | robust red to pink color | significant pink color | red to pink color | O=C(O)CNC(=O)c1ccc(O)cc1 [4-HHA, p-hydroxyhippuric acid] | – | colorless or slightly yellowish | colorless or slightly yellowish | colorless or slightly yellowish | colorless or slightly yellowish | slightly yellowish | colorless or slightly yellowish
